Test results reported in patent publication US20170081323A1 (priority 2015, published 2017).

The compounds below were run on influenza A virus (IAV) A/Aichi/2/68 (H3N2) (assay: microbe, parasite or virus in culture). Details: H3N2, MDCK, 48 h, read-out: CPE.
Type: cell-based, influenza A virus A/Aichi/2/68 (H3N2) on MDCK cells

Compound	IC50
O=c1[nH]nc2ccc(-c3cccc4ccccc34)cn12	> 50 µM
O=c1[nH]nc2ccc(-c3ccccc3Cl)c(Oc3ccccc3)n12	> 50 µM
O=c1[nH]nc2ccc(-c3ccccc3-c3ccncc3)cn12	> 50 µM
O=c1[nH]nc2ccc(Oc3ccccc3)cn12	> 50 µM
O=c1[nH]nc2cccc(Oc3ccccc3)n12	> 50 µM
O=c1[nH]nc2cccc(-c3ccccc3)n12	> 50 µM
O=c1[nH]nc2ccc(Br)c(Oc3ccccc3)n12	> 50 µM
O=c1[nH]nc2n1C(OCC1CC1)CCC2 (centres unmarked)	> 50 µM
O=c1[nH]nc2ccc(-c3ccccc3-c3cccc(F)c3)cn12	> 50 µM
O=c1[nH]nc2cc(-c3ccccc3)ccn12	> 50 µM
O=c1[nH]nc2ccc(-c3ccc(Cl)cc3)cn12	> 50 µM
O=c1[nH]nc2ccc(-c3cccc(F)c3F)cn12	> 50 µM
O=c1[nH]nc2ccc(-c3cccc(F)c3)cn12	> 50 µM
O=c1[nH]nc2ccc(-c3ccccc3Cl)c(OCC3CC3)n12	> 50 µM
O=c1[nH]nc2ccc(-c3cccc(Cl)c3)cn12	> 50 µM
O=c1[nH]nc2ccc(-c3cccc(-c4ccccc4)c3)cn12	> 50 µM
O=c1[nH]nc2ccc(-c3ccc(-c4ccccc4)cc3)cn12	> 50 µM
Cc1ccc(C)c(-c2ccc3n[nH]c(=O)n3c2)c1	> 50 µM
O=c1[nH]nc2cccc(-c3ncccn3)n12	> 50 µM
O=c1[nH]nc2ccc(-c3ccccc3)cn12	> 50 µM
O=C1NNC2CCCC(CCC3CC3)N12 (centres unmarked)	> 50 µM
O=c1[nH]nc2ccc(-c3ccccc3)c(OCC3CC3)n12	> 50 µM
O=c1[nH]nc2ccc(-c3ccccc3Cl)cn12	> 50 µM
O=c1[nH]nc2cccc(C#CC3CC3)n12	> 50 µM
O=c1[nH]nc2ccc(Br)cn12	> 50 µM
COc1ccc(-c2ccc3n[nH]c(=O)n3c2)c(Cl)c1	> 50 µM
O=c1[nH]nc2c(-c3ccccc3)cccn12	> 50 µM
O=c1[nH]nc2ccc(-c3ccccc3-c3ccccc3)cn12	> 50 µM

Same assay, conditions: H3N2, MDCK, 48 h, read-out: CPE IC50

Compound	IC50
O=c1[nH]nc2ccc(-c3cccc(-c4c(F)cccc4F)c3)cn12	34.9 µM
